Structures can show the parent of a compound that is named as a salt.
Each molecule was assayed against T1, human D3 dopamine receptors (Homo sapiens, UniProt P35462) (assay: [125I] iodosulpride displacement binding to cloned human D3 dopamine receptors expressed in CHO cells). Conditions: displacement of 0.1 nM [125I] iodosulpride, CHO cell membranes, 30 min at 37° C.; read-out: IC50 values at the human D3 receptor.
T1 construct: expressed in transfected cells; host or cells: CHO cells
Protocol: The inhibition constants (Ki) of test compounds for displacement of [^125 I] iodosulpride binding to human D3 dopamine receptors expressed in CHO cells were determined as follows. […] Cultures were grown as monolayers or in suspension in standard cell culture media. Cells were recovered by scraping (from monolayers) or by centrifugation (from suspension cultures), and were washed two or three times by suspension in phosphate buffered saline followed by collection by centrifugation. Cell pellets were stored frozen at -40° C. Crude cell membranes were prepared by homogenisation followed by high-speed centrifugation, and characterisation of cloned receptors achieved by radioligand binding.
Cell pellets were gently thawed at room temperature, and resuspended in about 20 volumes of ice-cold 50 mM Tris salts (pH 7.4@37° C.), 20 mM EDTA, 0.2M sucrose. The suspension was homogenised using an Ultra-Turrax at full speed for 15 sec. The homogenate was centrifuged at 18,000 r.p.m for 20 min at 4° C. in a SorvalI RC5C centrifuge. The membrane pellet was resuspended in ice-cold 50 mM Tris salts (pH 7.4@37° C.), using an Ultra-Turrax, and recentrifuged at 18,000 r.p.m for 15 min at 4° C. in a Sorvall RC5C. The membranes were washed two more times with ice-cold 50 mM Tris salts (pH 7.4@37° C.). The final pellet was resuspended in 50 mM Tris salts (pH 7.4@37° C.), and the protein content determined using bovine serum albumin as a standard (Bradford, M. M. (1976) Anal. Biochem. 72, 248-254).
Crude cell membranes were incubated with 0.1 nM [^125 I] iodosulpride (~2000 Ci/mmol; Amersham, U. K.), and the test compound in a buffer containing 50 mM Tris salts (pH 7.4@37° C.), 120 mM NaCl, 5 mM KCl, 2 mM CaCl2, 1 mM MgCl2, 0.1% (w/v) bovine serum albumin, in a total volume of 1 ml for 30 min at 37° C. […] The radioactivity on the filters was measured using a Cobra gamma counter (Canberra Packard). […]
Competition curves were analysed simultaneously whenever possible using non-linear least-squares fitting procedures, capable of fitting one, two or three site models.

T1 sequence (P35462 whole entry): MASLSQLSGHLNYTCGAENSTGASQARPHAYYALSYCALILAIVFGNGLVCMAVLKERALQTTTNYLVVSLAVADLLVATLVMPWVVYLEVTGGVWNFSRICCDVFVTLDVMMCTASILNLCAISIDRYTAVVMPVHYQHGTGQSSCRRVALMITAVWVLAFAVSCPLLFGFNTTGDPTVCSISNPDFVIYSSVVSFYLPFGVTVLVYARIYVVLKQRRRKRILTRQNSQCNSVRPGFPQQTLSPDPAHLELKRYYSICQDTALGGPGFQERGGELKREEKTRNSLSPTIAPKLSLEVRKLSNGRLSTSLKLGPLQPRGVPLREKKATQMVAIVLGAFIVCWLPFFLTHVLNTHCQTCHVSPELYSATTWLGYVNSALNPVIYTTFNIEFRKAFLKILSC

IC50, 5 to 20 nM:
CCN1CCCC1c1ccc(-c2cc(S(=O)(=O)Oc3ccccc3)ccc2OC)[nH]1 (racemic) [Example 2, 2-(2-(R,S)-(1-Ethylpyrrolidinyl))-5-(2-methoxy-5-phenoxysulphonylphenyl)-1H-pyrrole hydrochloride.]
CCN(Cc1ccccc1)Cc1ccc(-c2cc(S(=O)(=O)Oc3ccccc3)ccc2OC)[nH]1 [Example 3, 2-(N-Benzyl-N-ethyl)aminomethyl-5-(2-methoxy-5-phenoxysulphonylphenyl)-1H-pyrrole hydrochloride]
COc1ccc(S(=O)(=O)Oc2ccccc2)cc1-c1ccc(CN2CCCCCC2c2ccccc2)[nH]1 (stereo not drawn) [Example 1, 2-(2-Methoxy-5-Phenoxysulfonylphenyl)-5-(1-[2-phenylazacycloheptyl]methyl)-1H-pyrrole, hydrochloride]

From US5637600A, “Phenylpyrrole derivatives and their use as dopamine D3 antagonists” (SmithKline Beecham p.l.c., priority 1994, dated 1997)
